Results reported in US20090156646A1, “PYRIDYLPHENOL COMPOUND AND USE THEREOF” (TAKEDA PHARMACEUTICAL COMPANY LIMITED, priority 2005, published 2009).

Tests used:
[1] = target: T1, human metastin receptor hOT7T175 (Homo sapiens, UniProt Q969F8, L364H); assay: binding inhibiting activity: 125I-metastin (40-54) binding to cell membrane fraction of h175 KB34 cells; settings: room temperature 60 minutes, read-out: binding inhibiting activity, represented by the IC50 value
T1 construct: encoding the entire length of human metastin receptor hOT7T175; expressed in transfected cells; host or cells: CHO/dhFr- cells (ATCC #CRL-9096) stably transfected with pAKKO-hOT7T175; clone h175-16 was used as whole cells for FLIPR
T1 sequence (Q969F8 whole entry L364H): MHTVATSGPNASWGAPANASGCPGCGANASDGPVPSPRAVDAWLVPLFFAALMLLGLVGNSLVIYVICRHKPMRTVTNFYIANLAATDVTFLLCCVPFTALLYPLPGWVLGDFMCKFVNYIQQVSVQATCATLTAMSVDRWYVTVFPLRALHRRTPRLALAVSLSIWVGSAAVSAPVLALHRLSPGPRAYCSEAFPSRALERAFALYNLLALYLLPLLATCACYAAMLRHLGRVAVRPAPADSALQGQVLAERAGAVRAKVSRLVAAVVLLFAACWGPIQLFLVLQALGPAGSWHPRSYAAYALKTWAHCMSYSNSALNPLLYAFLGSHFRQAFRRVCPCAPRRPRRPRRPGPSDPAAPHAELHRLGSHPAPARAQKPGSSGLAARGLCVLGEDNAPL
Outline: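 The assay buffer (pH 7.4 Tris with magnesium acetate, EGTA and a protease-inhibitor cocktail) was used either plain or supplemented with 1 mg/ml BSA. The radioligand was 125I-labelled human metastin (40-54). The receptor source was a 250-fold diluted membrane fraction of the stable CHO/dhfr− line h175 KB34.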

SMILES	IC50 [1] [µM]	melting point
CCN1CCC[C@H]1CC(=O)Nc1cccc(-c2cc(-c3ccc(F)cc3O)nc(NC(=O)c3ccco3)c2C#N)c1.Cl [Example 336, N-[3-cyano-4-[3-({[(2S)-1-ethylpyrrolidin-2-yl]acetyl}amino)phenyl]-6-(4-fluoro-2-hydroxyphenyl)pyridin-2-yl]-2-furamide hydrochloride]	≤ 10	182 to 187 °C
Cl.N#Cc1c(-c2cccc(N3CCCNCC3)c2)cc(-c2ccc(F)cc2O)nc1NC(=O)c1ccco1 [Example 326, N-[3-cyano-4-[3-(1,4-diazepan-1-yl)phenyl]-6-(4-fluoro-2-hydroxyphenyl)pyridin-2-yl]-2-furamide hydrochloride]	≤ 10	254 to 259 °C
COc1ccccc1C(=O)Nc1nc(-c2ccc(Cl)cc2O)cc(-c2cccc(C(=O)NCC3CCCCN3)c2)c1C#N.Cl (centres unmarked) [Example 71, N-[6-(4-chloro-2-hydroxyphenyl)-3-cyano-4-(3-{[(piperidine-2-ylmethyl)amino]carbonyl}phenyl)pyridin-2-yl]-2-methoxybenzamide hydrochloride]	≤ 10	210 to 217 °C
Cl.N#Cc1c(-c2cccc(NC(=O)[C@H](N)Cc3ccccc3)c2)cc(-c2ccc(F)cc2O)nc1NC(=O)c1ccco1 [Example 263, N-{3-[3-cyano-6-(4-fluoro-2-hydroxyphenyl)-2-(2-furoylamino)pyridin-4-yl]phenyl}-D-phenylalaninamide hydrochloride]	≤ 10	186 to 188 °C
Cl.N#Cc1c(-c2cccc(NC(=O)Cn3ccnc3)c2)cc(-c2ccc(Cl)cc2O)nc1NC(=O)c1ccco1 [Example 239, N-(6-(4-chloro-2-hydroxyphenyl)-3-cyano-4-{3-[(1H-imidazole-1-ylacetyl)amino]phenyl}pyridin-2-yl)-2-furamide hydrochloride]	≤ 10	188 to 194 °C
Cc1ccc(C(=O)Nc2nc(-c3ccc(Cl)cc3O)cc(-c3cccc(NC(=O)CC(C)N)c3)c2C#N)o1.Cl (centres unmarked) [Example 271, N-[4-{3-[(3-aminobutanoyl)amino]phenyl}-6-(4-chloro-2-hydroxyphenyl)-3-cyanopyridin-2-yl]-5-methyl-2-furamide hydrochloride]	≤ 10	206 to 212 °C
Cl.N#Cc1c(-c2cccc(C(=O)NC3CCNCC3)c2)cc(-c2ccccc2O)nc1NC(=O)c1cccs1 [Example 7, N-(3-cyano-6-(2-hydroxyphenyl)-4-{3-[(piperidin-4-ylamino)carbonyl]phenyl}pyridin-2-yl)thiophene-2-carboxamide hydrochloride]	≤ 10	254 to 256 °C
CCN(CC)CCC(=O)Nc1cccc(-c2cc(-c3ccc(F)cc3O)nc(NC(=O)c3ccco3)c2C#N)c1.Cl [Example 328, N-[3-cyano-4-{3-[(N,N-diethyl-β-alanyl)amino]phenyl}-6-(4-fluoro-2-hydroxyphenyl)pyridin-2-yl]-2-furamide hydrochloride]	≤ 10	209 to 213 °C
C[C@H](N)C(=O)Nc1cccc(-c2cc(-c3ccc(Cl)cc3O)nc(NC(=O)c3ccco3)c2C#N)c1.Cl [Example 240, N-[4-[3-(L-alanylamino)phenyl]-6-(4-chloro-2-hydroxyphenyl)-3-cyanopyridin-2-yl]-2-furamide hydrochloride]	≤ 10	207 to 210 °C
Cl.N#Cc1c(-c2cccc(NC(=O)[C@H]3CCCN3)c2)cc(-c2ccc(F)cc2O)nc1NC(=O)c1nccs1 [Example 292, N-(3-{3-cyano-6-(4-fluoro-2-hydroxyphenyl)-2-[(1,3-thiazol-2-ylcarbonyl)amino]pyridin-4-yl}phenyl)-D-prolinamide hydrochloride]	≤ 10	241 to 244 °C
Cl.N#Cc1c(-c2cccc(NC(=O)C3(N)CC3)c2)cc(-c2ccc(Cl)cc2O)nc1NC(=O)c1ccco1 [Example 69, N-[4-(3-{[(1-aminocyclopropyl)carbonyl]amino}phenyl)-6-(4-chloro-2-hydroxyphenyl)-3-cyanopyridin-2-yl]-2-furamide hydrochloride]	≤ 10	190 to 196 °C
Cl.N#Cc1c(-c2cccc(NC(=O)CCN)c2)cc(-c2ccc(Br)cc2O)nc1NC(=O)c1cccs1 [Example 61, N-{4-[3-(β-alanylamino)phenyl]-6-(4-bromo-2-hydroxyphenyl)-3-cyanopyridin-2-yl}thiophene-2-carboxamide hydrochloride]	≤ 10	203 to 211 °C
CCC(N)CC(=O)Nc1cccc(-c2cc(-c3ccc(F)cc3O)nc(NC(=O)c3ccco3)c2C#N)c1.Cl (centres unmarked) [Example 264, N-[4-{3-[(3-aminopentanoyl)amino]phenyl}-3-cyano-6-(4-fluoro-2-hydroxyphenyl)pyridin-2-yl]-2-furamide hydrochloride]	≤ 10	212 to 214 °C
C[C@@H](N)CC(=O)Nc1cccc(-c2cc(-c3ccc(Cl)cc3O)nc(NC(=O)c3nccs3)c2C#N)c1.Cl [Example 270, N-[4-(3-{[(3R)-3-aminobutanoyl]amino}phenyl)-6-(4-chloro-2-hydroxyphenyl)-3-cyanopyridin-2-yl]-1,3-thiazole-2-carboxamide hydrochloride]	≤ 10	218 to 221 °C
Cl.N#Cc1c(-c2cccc(C(=O)NCCCn3ccnc3)c2)cc(-c2ccc(Cl)cc2O)nc1NC(=O)c1ccco1 [Example 83, N-{6-(4-chloro-2-hydroxyphenyl)-3-cyano-4-[3-({[3-(1H-imidazol-1-yl)propyl]amino}carbonyl)phenyl]pyridin-2-yl}-2-furamide hydrochloride]	≤ 10	182 to 184 °C
CCN1CCCCC1CC(=O)Nc1cccc(-c2cc(-c3ccc(F)cc3O)nc(NC(=O)c3ccco3)c2C#N)c1.Cl (centres unmarked) [Example 322, N-[3-cyano-4-(3-{[(1-ethylpiperidin-2-yl)acetyl]amino}phenyl)-6-(4-fluoro-2-hydroxyphenyl)pyridin-2-yl]-2-furamide hydrochloride]	≤ 10	201 to 203 °C
Cl.N#Cc1c(-c2cccc(NC(=O)[C@H]3CCC[C@H]3N)c2)cc(-c2ccc(F)cc2O)nc1NC(=O)c1ccco1 (racemic) [Example 278, N-{4-[3-({[(1SR,2RS)-2-aminocyclopentyl]carbonyl}amino)phenyl]-3-cyano-6-(4-fluoro-2-hydroxyphenyl)pyridin-2-yl}-2-furamide hydrochloride]	≤ 10	224 to 226 °C
Cl.N#Cc1c(-c2cccc(C(=O)NCCN)c2)cc(-c2ccc(Cl)cc2O)nc1NC(=O)c1nccs1 [Example 249, N-[4-(3-{[(2-aminoethyl)amino]carbonyl}phenyl)-6-(4-chloro-2-hydroxyphenyl)-3-cyanopyridin-2-yl]-1,3-thiazole-2-carboxamide hydrochloride]	≤ 10	242 to 244 °C
CCC(CC(=O)Nc1cccc(-c2cc(-c3ccc(F)cc3O)nc(NC(=O)c3ccco3)c2C#N)c1)N(CC)CC.Cl (centres unmarked) [Example 319, N-[3-cyano-4-(3-{[3-(diethylamino)pentanoyl]amino}phenyl)-6-(4-fluoro-2-hydroxyphenyl)pyridin-2-yl]-2-furamide hydrochloride]	≤ 10	171 to 175 °C
Cl.N#Cc1c(-c2cccc(NC(=O)CCN)c2)cc(-c2ccc(C(F)(F)F)cc2O)nc1NC(=O)c1cccs1 [Example 64, N-{4-[3-(β-alanylamino)phenyl]-3-cyano-6-[2-hydroxy-4-(trifluoromethyl)phenyl]pyridin-2-yl}thiophene-2-carboxamide hydrochloride]	≤ 10	209 to 216 °C
COc1ccccc1C(=O)Nc1nc(-c2ccc(F)cc2O)cc(-c2cccc(C(=O)NCCCn3ccnc3)c2)c1C#N.Cl [Example 245, N-{3-cyano-6-(4-fluoro-2-hydroxyphenyl)-4-[3-({[3-(1H-imidazol-1-yl)propyl]amino}carbonyl)phenyl]pyridin-2-yl}-2-methoxybenzamide hydrochloride]	≤ 10	234 to 235 °C
COc1ccccc1C(=O)Nc1nc(-c2ccc(F)cc2O)cc(-c2cccc(C(=O)NCC(C)(C)CN)c2)c1C#N.Cl [Example 246, N-[4-(3-{[(3-amino-2,2-dimethylpropyl)amino]carbonyl}phenyl)-3-cyano-6-(4-fluoro-2-hydroxyphenyl)pyridin-2-yl]-2-methoxybenzamide hydrochloride]	≤ 10	244 to 246 °C
Cl.N#Cc1c(-c2cccc(NC(=O)[C@H]3CCCN3)c2)cc(-c2ccc(F)cc2O)nc1NC(=O)c1ccno1 [Example 293, N-(3-{3-cyano-6-(4-fluoro-2-hydroxyphenyl)-2-[(isoxazol-5-ylcarbonyl)amino]pyridin-4-yl}phenyl)-D-prolinamide hydrochloride]	≤ 10	≥ 250 °C (dec.)
Cl.N#Cc1c(-c2cccc(C(=O)NCCN)c2)cc(-c2ccc(Cl)cc2O)nc1NC(=O)c1ccco1 [Example 86, N-[4-(3-{[(2-aminoethyl)amino]carbonyl}phenyl)-6-(4-chloro-2-hydroxyphenyl)-3-cyanopyridin-2-yl]-2-furamide hydrochloride]	≤ 10	252 to 255 °C
Cl.N#Cc1c(-c2cccc(NC(=O)[C@H]3CCCN3)c2)cc(-c2ccc(F)cc2O)nc1NC(=O)c1ccco1 [Example 291, N-{3-[3-cyano-6-(4-fluoro-2-hydroxyphenyl)-2-(2-furoylamino)pyridin-4-yl]phenyl}-D-prolinamide hydrochloride]	≤ 10	216 to 220 °C
